Results reported in PubChem BioAssay (NCI).
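The concentration for 50% growth inhibition is given as GI50. TGI: total growth inhibition.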

How the values were obtained:
Assay in all cases: growth of human tumour cells (NCI), 384-well format
MDA-MB-231 breast = system: MDA-MB-231 breast
HT29 colon = system: HT29 colon
K-562 leukemia = system: K-562 leukemia
SF-268 CNS = system: SF-268 CNS
M14 melanoma = system: M14 melanoma
SF-539 CNS = system: SF-539 CNS
PC-3 prostate = system: PC-3 prostate
EKVX NSCLC = system: EKVX NSCLC
SN12C renal = system: SN12C renal
NCI/ADR-RES ovarian = system: NCI/ADR-RES ovarian
ACHN renal = system: ACHN renal
SNB-19 CNS = system: SNB-19 CNS
OVCAR-8 ovarian = system: OVCAR-8 ovarian
IGROV1 ovarian = system: IGROV1 ovarian
NCI-H23 lung = system: NCI-H23 lung
SK-MEL-2 melanoma = system: SK-MEL-2 melanoma
KM12 colon = system: KM12 colon
LOX IMVI melanoma = system: LOX IMVI melanoma
MALME-3M melanoma = system: MALME-3M melanoma
CCRF-CEM leukemia = system: CCRF-CEM leukemia
MDA-MB-468 breast = system: MDA-MB-468 breast
A549 NSCLC = system: A549 NSCLC
DU-145 prostate = system: DU-145 prostate
BT-549 breast = system: BT-549 breast
SR leukemia = system: SR leukemia
CAKI-1 renal = system: CAKI-1 renal
HCT-116 colon = system: HCT-116 colon
HS 578T breast = system: HS 578T breast
UACC-257 melanoma = system: UACC-257 melanoma
HCC-2998 colon = system: HCC-2998 colon
OVCAR-4 ovarian = system: OVCAR-4 ovarian
HOP-62 NSCLC = system: HOP-62 NSCLC
UO-31 renal = system: UO-31 renal
HCT-15 colon = system: HCT-15 colon
SF-295 CNS = system: SF-295 CNS
HOP-92 NSCLC = system: HOP-92 NSCLC
SNB-75 CNS = system: SNB-75 CNS
MCF7 breast = system: MCF7 breast
NCI-H322M lung = system: NCI-H322M lung
OVCAR-5 ovarian = system: OVCAR-5 ovarian
TK-10 renal = system: TK-10 renal
SW-620 colon = system: SW-620 colon
COLO 205 colon = system: COLO 205 colon
NCI-H226 lung = system: NCI-H226 lung
MOLT-4 leukemia = system: MOLT-4 leukemia
SK-OV-3 ovarian = system: SK-OV-3 ovarian
MDA-MB-435 melanoma = system: MDA-MB-435 melanoma

SMILES: O=S(=O)(c1ccc2c(c1)C(=NO)c1cc(S(=O)(=O)N3CCCCC3)ccc1-2)N1CCCCC1
- GI50 (MDA-MB-231 breast): 139 nM
- TGI (MDA-MB-231 breast): 270 nM
- GI50 (HT29 colon): 184 nM
- TGI (HT29 colon): 326 nM
- GI50 (K-562 leukemia): 170 nM
- TGI (K-562 leukemia): 313 nM
- GI50 (SF-268 CNS): 165 nM
- TGI (SF-268 CNS): 303 nM
- GI50 (M14 melanoma): 170 nM
- TGI (M14 melanoma): 308 nM
- GI50 (SF-539 CNS): 174 nM
- TGI (SF-539 CNS): 317 nM
- GI50 (PC-3 prostate): 165 nM
- TGI (PC-3 prostate): 303 nM
- GI50 (EKVX NSCLC): 115 nM
- TGI (EKVX NSCLC): 241 nM
- GI50 (SN12C renal): 181 nM
- TGI (SN12C renal): 323 nM
- GI50 (NCI/ADR-RES ovarian): 342 nM
- TGI (NCI/ADR-RES ovarian): 1140 nM
- GI50 (ACHN renal): 17.6 nM
- TGI (ACHN renal): 31.6 nM
- GI50 (SNB-19 CNS): 189 nM
- TGI (SNB-19 CNS): 332 nM
- GI50 (OVCAR-8 ovarian): 153 nM
- TGI (OVCAR-8 ovarian): 288 nM
- GI50 (IGROV1 ovarian): 162 nM
- TGI (IGROV1 ovarian): 306 nM
- GI50 (NCI-H23 lung): 92.7 nM
- TGI (NCI-H23 lung): 228 nM
- GI50 (SK-MEL-2 melanoma): 196 nM
- TGI (SK-MEL-2 melanoma): 339 nM
- GI50 (KM12 colon): 177 nM
- TGI (KM12 colon): 329 nM
- GI50 (LOX IMVI melanoma): 17.2 nM
- TGI (LOX IMVI melanoma): 32 nM
- GI50 (MALME-3M melanoma): 179 nM
- TGI (MALME-3M melanoma): 321 nM
- GI50 (CCRF-CEM leukemia): 82.5 nM
- TGI (CCRF-CEM leukemia): 205 nM
- GI50 (MDA-MB-468 breast): 58.4 nM
- TGI (MDA-MB-468 breast): 171 nM
- GI50 (A549 NSCLC): 171 nM
- TGI (A549 NSCLC): 315 nM
- GI50 (DU-145 prostate): 177 nM
- TGI (DU-145 prostate): 318 nM
- GI50 (BT-549 breast): 179 nM
- TGI (BT-549 breast): 319 nM
- GI50 (SR leukemia): 158 nM
- TGI (SR leukemia): 294 nM
- GI50 (CAKI-1 renal): 19 nM
- TGI (CAKI-1 renal): 35.2 nM
- GI50 (HCT-116 colon): 173 nM
- TGI (HCT-116 colon): 316 nM
- GI50 (HS 578T breast): 175 nM
- TGI (HS 578T breast): 314 nM
- GI50 (UACC-257 melanoma): 180 nM
- TGI (UACC-257 melanoma): 320 nM
- GI50 (HCC-2998 colon): 166 nM
- TGI (HCC-2998 colon): 303 nM
- GI50 (OVCAR-4 ovarian): 17.9 nM
- TGI (OVCAR-4 ovarian): 34.4 nM
- GI50 (HOP-62 NSCLC): 97.6 nM
- TGI (HOP-62 NSCLC): 216 nM
- GI50 (UO-31 renal): 16 nM
- TGI (UO-31 renal): 29.8 nM
- GI50 (HCT-15 colon): 186 nM
- TGI (HCT-15 colon): 333 nM
- GI50 (SF-295 CNS): 176 nM
- TGI (SF-295 CNS): 316 nM
- GI50 (HOP-92 NSCLC): 116 nM
- TGI (HOP-92 NSCLC): 242 nM
- GI50 (SNB-75 CNS): 184 nM
- TGI (SNB-75 CNS): 324 nM
- GI50 (MCF7 breast): 187 nM
- TGI (MCF7 breast): 334 nM
- GI50 (NCI-H322M lung): 178 nM
- TGI (NCI-H322M lung): 320 nM
- GI50 (OVCAR-5 ovarian): 184 nM
- TGI (OVCAR-5 ovarian): 324 nM
- GI50 (TK-10 renal): 187 nM
- TGI (TK-10 renal): 336 nM
- GI50 (SW-620 colon): 182 nM
- TGI (SW-620 colon): 323 nM
- GI50 (COLO 205 colon): 184 nM
- TGI (COLO 205 colon): 325 nM
- GI50 (NCI-H226 lung): 168 nM
- TGI (NCI-H226 lung): 309 nM
- GI50 (MOLT-4 leukemia): 168 nM
- TGI (MOLT-4 leukemia): 306 nM
- GI50 (SK-OV-3 ovarian): 169 nM
- TGI (SK-OV-3 ovarian): 308 nM
- GI50 (MDA-MB-435 melanoma): 183 nM
- TGI (MDA-MB-435 melanoma): 323 nM
